Positions of bridges follow the written chain, without caps; N, C: chain ends. Non-standard residues stand in square brackets, D forms with d. Residues, ends and D or L forms follow the SMILES beside them. Pen = CC(C)(S)[C@H](N)C(=O)O; Mpa = O=C(O)CCS
Columns and labels:
Assay type in all cases: protein-complex assay
[1] = target: T1, Integrin alpha-IIb/beta-3 (Homo sapiens, UniProt P05106+P08514); assay: Inhibition of fibrinogen binding to purified human alpha IIb beta-3 integrin by 50% in an ELISA test
T1 sequence (P05106 27-788 limits assumed): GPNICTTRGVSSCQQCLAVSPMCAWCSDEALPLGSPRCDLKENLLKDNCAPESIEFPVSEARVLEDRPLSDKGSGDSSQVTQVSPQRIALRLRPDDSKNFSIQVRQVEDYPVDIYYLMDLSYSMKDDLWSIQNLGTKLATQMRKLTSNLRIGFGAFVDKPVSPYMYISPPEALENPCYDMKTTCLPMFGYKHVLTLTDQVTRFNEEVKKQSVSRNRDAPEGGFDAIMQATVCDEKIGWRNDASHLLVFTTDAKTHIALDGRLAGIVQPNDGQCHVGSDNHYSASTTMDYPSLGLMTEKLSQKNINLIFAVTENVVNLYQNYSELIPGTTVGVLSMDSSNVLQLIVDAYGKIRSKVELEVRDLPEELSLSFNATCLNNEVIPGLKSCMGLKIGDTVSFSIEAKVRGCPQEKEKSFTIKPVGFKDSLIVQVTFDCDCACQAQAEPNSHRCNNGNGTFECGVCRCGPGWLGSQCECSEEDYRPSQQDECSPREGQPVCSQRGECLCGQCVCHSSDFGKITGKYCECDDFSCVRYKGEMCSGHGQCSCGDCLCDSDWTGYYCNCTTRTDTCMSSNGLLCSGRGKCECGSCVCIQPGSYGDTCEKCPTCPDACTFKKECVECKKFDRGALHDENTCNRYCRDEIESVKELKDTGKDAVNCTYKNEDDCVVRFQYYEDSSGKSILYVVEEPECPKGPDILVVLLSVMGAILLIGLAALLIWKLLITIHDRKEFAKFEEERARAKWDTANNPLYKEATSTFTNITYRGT
T1 sequence (P08514 32-887 limits assumed): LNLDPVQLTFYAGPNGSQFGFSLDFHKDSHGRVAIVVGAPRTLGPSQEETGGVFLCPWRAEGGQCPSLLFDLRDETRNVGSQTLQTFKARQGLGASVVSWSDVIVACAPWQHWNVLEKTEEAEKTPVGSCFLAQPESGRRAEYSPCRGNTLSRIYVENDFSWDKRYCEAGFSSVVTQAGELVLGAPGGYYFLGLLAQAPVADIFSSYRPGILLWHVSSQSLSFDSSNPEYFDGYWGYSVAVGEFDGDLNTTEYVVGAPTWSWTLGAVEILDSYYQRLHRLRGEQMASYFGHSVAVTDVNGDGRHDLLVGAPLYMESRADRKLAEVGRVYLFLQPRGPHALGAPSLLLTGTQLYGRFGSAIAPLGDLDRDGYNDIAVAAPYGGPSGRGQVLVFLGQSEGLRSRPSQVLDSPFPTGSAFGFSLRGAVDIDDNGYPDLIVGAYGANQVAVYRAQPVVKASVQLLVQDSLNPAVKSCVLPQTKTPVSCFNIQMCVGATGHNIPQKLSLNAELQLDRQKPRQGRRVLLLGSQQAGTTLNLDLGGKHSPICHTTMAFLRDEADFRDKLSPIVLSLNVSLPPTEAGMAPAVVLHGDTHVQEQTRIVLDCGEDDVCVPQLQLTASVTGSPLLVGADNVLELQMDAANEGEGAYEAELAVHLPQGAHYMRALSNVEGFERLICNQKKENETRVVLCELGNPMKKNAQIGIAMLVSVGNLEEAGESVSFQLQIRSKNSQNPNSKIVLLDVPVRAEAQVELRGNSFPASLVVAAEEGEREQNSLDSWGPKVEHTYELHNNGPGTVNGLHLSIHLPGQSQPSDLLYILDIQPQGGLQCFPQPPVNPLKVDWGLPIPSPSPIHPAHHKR
T1 sequence (P08514 891-1039 limits assumed): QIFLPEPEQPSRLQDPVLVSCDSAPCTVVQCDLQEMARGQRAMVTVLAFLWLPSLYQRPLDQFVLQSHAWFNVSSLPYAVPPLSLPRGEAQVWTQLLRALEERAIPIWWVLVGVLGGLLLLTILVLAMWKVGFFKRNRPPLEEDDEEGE

[2] = target: T1, Integrin alpha-IIb/beta-3; assay: Inhibition of fibrinogen binding to purified Human alphaIIb-beta3 integrin in ELISA with 0.1% bovine serum albumin (BSA)
[3] = target: T1, Integrin alpha-IIb/beta-3; assay: Inhibition of fibrinogen binding to purified Human alphaIIb-beta3 integrin in ELISA with 1% bovine serum albumin (BSA)
[4] = target: T1, Integrin alpha-IIb/beta-3; assay: Inhibition of fibrinogen binding to purified Human alphaIIb-beta3 integrin in ELISA with 4.5% bovine serum albumin (BSA)

Row | SMILES | IC50 [1] | IC50 [2] | IC50 [3] | IC50 [4]
1 | CCOCCCC(CC(=O)O)N1CCc2cc(OCc3ccc(C(=N)N)cc3)ccc2C1=O (stereo not drawn) | – | 61 nM | 73 nM | 100 nM
2 | CCCC(CN1CCc2cc(OCc3ccc(C(=N)N)cc3)ccc2C1=O)C(=O)O (stereo not drawn) | 1800 nM | – | – | –
3 | CCCCCCC(CC(=O)O)N1CCc2cc(OCc3ccc(C(=N)N)cc3)ccc2C1=O (stereo not drawn) | 41 nM | 41 nM | 80 nM | 310 nM
4 | N=C(N)c1ccc(C(=O)Nc2ccc3c(c2)CCN(CC(=O)O)C3=O)cc1 | 3 nM | – | – | –
5 | N=C(N)c1ccc(COc2ccc3c(c2)CCN(CCC(=O)O)C3=O)cc1 | 320 nM | – | – | –
6 | CCCC(C(=O)O)N1CCc2cc(OCc3ccc(C(=N)N)cc3)ccc2C1=O (stereo not drawn) | 1700 nM | – | – | –
7 | CCCCCC(CC(=O)O)N1CCc2cc(OCc3ccc(C(=N)N)cc3)ccc2C1=O (stereo not drawn) | – | 24 nM | 40 nM | 100 nM
8 | CC1(C)SSCCC(=O)N[C@@H](CCCNC(=N)N)C(=O)NCC(=O)N[C@@H](CC(=O)O)C(=O)N[C@@H](Cc2c[nH]c3ccccc23)C(=O)N2CCC[C@H]2C(=O)N[C@@H]1C(N)=O ([Mpa]RGDWP[Pen]-NH2; disulfide 1-7) | 100 nM | – | – | –

Further lines, results first:

Row | IC50 [1] | IC50 [2] | IC50 [3] | IC50 [4] | SMILES
9 | 56 nM | – | – | – | COCCCC(CC(=O)O)N1CCc2cc(OCc3ccc(C(=N)N)cc3)ccc2C1=O (stereo not drawn)
10 | 46 nM | – | – | – | CCC(CC(=O)O)N1CCc2cc(OCc3ccc(C(=N)N)cc3)ccc2C1=O (stereo not drawn)
11 | 47 nM | – | – | – | CCCC(CC(=O)O)N1CCc2cc(OCc3ccc(C(=N)N)cc3)ccc2C1=O (stereo not drawn)
12 | 7 nM | – | – | – | N=C(N)c1ccc(COc2ccc3c(c2)CCN(C(CC(=O)O)c2ccccc2)C3=O)cc1 (stereo not drawn)
13 | 40 nM | – | – | – | CCCCC(CC(=O)O)N1CCc2cc(OCc3ccc(C(=N)N)cc3)ccc2C1=O (stereo not drawn)
14 | 8 nM | – | – | – | COc1ccc(C(CC(=O)O)N2CCc3cc(OCc4ccc(C(=N)N)cc4)ccc3C2=O)cc1 (stereo not drawn)
15 | 6 nM | – | – | – | COC(=O)c1ccc(C(CC(=O)O)N2CCc3cc(OCc4ccc(C(=N)N)cc4)ccc3C2=O)cc1 (stereo not drawn)
16 | 90 nM | – | – | – | COCCOCC(CC(=O)O)N1CCc2cc(OCc3ccc(C(=N)N)cc3)ccc2C1=O (stereo not drawn)
